Results published in PMC10080078, “Use of phage display biopanning as a tool to design CAR-T cells against glioma stem cells” (Frontiers in Oncology, 2023).
Values joined by “and” are separate entries in the source; they are usually repeats but may differ in a detail not shown here. Identical values can stand only once. Blank lines part the entries; values can stand above or below the molecule they belong to. Where no end group is shown, it is not given here.

Columns and labels:
GSCs = settings: ref ([22], [23]), cited from earlier work; for targeting of GSCs in vitro: previously demonstrated
Protocol: We have previously isolated glioblastoma stem cell targeting peptides through a combination of in vitro and in vivo biopanning strategies ([22], [23]). In vitro biopanning was performed by screening a random 7 amino acid phage peptide library against differentiated stem cells and glioblastoma stem cells grown in culture to isolate GSC-specific targeting peptides ( Figure 1A ). Two types of in vivo biopanning were performed, one against mice with intracranial GBM xenografts ( Figure 1B ) and one with subcutaneous flank xenografts ( Figure 1C ). Two peptides were selected for use in subsequent e ... || Figure 1 Peptide selection. Schematic representation of phage display strategies used to isolate the GSC-targeting peptides E (AWEFYFP) and V (SSQPFWS). […] Authors’ elaboration based on prior data from ([22], [23]).

[1] = test system: intracranial GBM xenografts; settings: ref ([22], [23]); cited from earlier work
From the text: (§1) Figure 1 Peptide selection. Schematic representation of phage display strategies used to isolate the GSC-targeting peptides E (AWEFYFP) and V (SSQPFWS). […] Authors’ elaboration based on prior data from ([22], [23]).

N-cadherin [2] = settings: by itself; ref manuscript under review; cited from earlier work
From the text: Our study has illustrated the utility and feasibility of designing novel antigen-binding domains for CAR-T cells by using two short peptides of just seven amino acids each to induce functional recognition of GSCs.

[3] = target: T1, N-cadherin extracellular domain, amino acids 160-724 (Homo sapiens, UniProt P19022); test: Surface plasmon resonance, single cycle kinetics (Biacore T200); assay type: binding
T1 construct: Recombinant Human N-Cadherin extracellular domain, amino acids 160-724; purchased R&D Systems 1388NC050
T1 sequence (P19022 160-724): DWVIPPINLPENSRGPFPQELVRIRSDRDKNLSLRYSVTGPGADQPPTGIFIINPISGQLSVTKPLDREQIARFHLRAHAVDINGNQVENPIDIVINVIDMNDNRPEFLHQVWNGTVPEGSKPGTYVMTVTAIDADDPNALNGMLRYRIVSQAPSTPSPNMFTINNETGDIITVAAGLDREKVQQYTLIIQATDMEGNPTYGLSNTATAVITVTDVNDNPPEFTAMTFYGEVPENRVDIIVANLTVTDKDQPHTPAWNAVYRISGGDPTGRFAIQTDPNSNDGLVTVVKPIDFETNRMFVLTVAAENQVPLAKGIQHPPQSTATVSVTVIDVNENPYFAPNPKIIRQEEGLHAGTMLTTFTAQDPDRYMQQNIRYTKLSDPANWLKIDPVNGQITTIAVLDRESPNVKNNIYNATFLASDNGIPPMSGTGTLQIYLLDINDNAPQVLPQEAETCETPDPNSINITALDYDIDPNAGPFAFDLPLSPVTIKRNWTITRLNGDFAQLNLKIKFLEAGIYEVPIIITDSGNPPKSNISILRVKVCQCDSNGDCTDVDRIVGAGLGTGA
Protocol: The direct binding measurements between N-cadherin and EV peptide by surface plasmon resonance was performed by immobilizing N-cadherin protein (Recombinant Human N-Cadherin extracellular domain, amino acids 160-724, 1388NC050, R&D Systems, Minneapolis, MN) to a CM5 sensor chip surface docked in Biacore T200 (Cytiva, Marlborough, MA) at 25°C using an amine-coupling method. Prior to immobilization, the chip was primed and equilibrated with a running buffer containing 20 mM HEPES, pH 7.4, 1 mM TCEP, 2 mM CaCl2 and 150 mM NaCl at a flow rate of 10 µL/min. The carboxymethyl surface of the CM5 chip was manually activated for 7 minutes using a 1:1 ratio of 0.4 M 1-ethyl-3-(3-[…]) carbodiimide hydrochloride (EDC) and 0.1 M N-hydroxysuccinimide (NHS) to achieve a density of about 10,000 RU per flow cell. N-cadherin protein stock (1.12 µM) was diluted to 100 nM in 10 mM sodium acetate, pH 4.5, and manually injected over the surface at the same flow rate. […]
For kinetic titration experiments, the same running buffer was used except with the inclusion of 5% DMSO. […] Sensorgrams were solvent corrected, buffer referenced, and the on-rate, off-rate, and equilibrium binding constants were calculated from the sensorgrams by global fitting of a 1:1 binding model, using analysis software (version 3.0) provided with Biacore T200 instrument (Cytiva).

N-cadherin [4] = test: Immunoblot of peptide pull-down; assay type: binding; settings: biotinylated peptide 40 μg on streptavidin agarose
Protocol: Cells were lysed using the IP Lysis Buffer Protocol (Pierce, Waltham, MA) as described by the manufacturer. Biotinylated peptides (EV-b and NT-b, 40 μg) were incubated with 100 μL of streptavidin agarose resin at 4°C for 1 hour on a rotator to generate the peptide-coupled streptavidin agarose resin. The protein samples were pre-cleared by incubation of 50 μL of NT-streptavidin agarose resins (4°C on rotator for 1 hour). After centrifugation, the pre-cleared samples were incubated with 150 μL of EV-coupled streptavidin agarose resin at 4°C overnight on rotator. After PBS wash, the resin was pelleted and sent for mass spectrometry analysis (see details in Supplementary Methods ) or eluted with 4x Laemmli Sample Buffer (Bio-Rad, Hercules, CA) containing 1X DTT reducing agent (dithiothreitol, Cell Signaling Technology, Danvers, MA) and boiled for SDS-PAGE. Pulled-down proteins were then separated with a Novex™ WedgeWell™ (ThermoFisher Scientific, Waltham, MA) and transferred to polyvinylidene fluoride (PVDF) membranes (Millipore, Burlington, MA). Membrane-transferred proteins were immunoblotted with an antibody recognizing N-cadherin (1/10000, NBP2-01498, Novus Biologicals, Littleton, CO) ( Supplemental Figure 2 ).

[5] = test system: subcutaneous flank GBM xenografts; settings: ref ([22], [23]); cited from earlier work
From the text: as §1

[6] = target: T2, Recombinant Human N-Cadherin extracellular domain, amino acids 160-724 (human, UniProt P19022 160-724); test: SPR; N-cadherin amine-coupled to CM5 chip (about 3500 RU), Biacore T200, 25°C; 20 mM HEPES pH 7.4, 1 mM TCEP, 2 mM CaCl2, 150 mM NaCl, 5% DMSO; single cycle kinetics, peptide 2 to 167 µM; 1:1 binding model; settings: both partners purified
T2 construct: N-cadherin (CDH2), human, extracellular domain, amino acids 160-724; also called recombinant N-cadherin; recombinant extracellular N-cadherin protein; source: bought: R&D Systems
T2 sequence (looked up): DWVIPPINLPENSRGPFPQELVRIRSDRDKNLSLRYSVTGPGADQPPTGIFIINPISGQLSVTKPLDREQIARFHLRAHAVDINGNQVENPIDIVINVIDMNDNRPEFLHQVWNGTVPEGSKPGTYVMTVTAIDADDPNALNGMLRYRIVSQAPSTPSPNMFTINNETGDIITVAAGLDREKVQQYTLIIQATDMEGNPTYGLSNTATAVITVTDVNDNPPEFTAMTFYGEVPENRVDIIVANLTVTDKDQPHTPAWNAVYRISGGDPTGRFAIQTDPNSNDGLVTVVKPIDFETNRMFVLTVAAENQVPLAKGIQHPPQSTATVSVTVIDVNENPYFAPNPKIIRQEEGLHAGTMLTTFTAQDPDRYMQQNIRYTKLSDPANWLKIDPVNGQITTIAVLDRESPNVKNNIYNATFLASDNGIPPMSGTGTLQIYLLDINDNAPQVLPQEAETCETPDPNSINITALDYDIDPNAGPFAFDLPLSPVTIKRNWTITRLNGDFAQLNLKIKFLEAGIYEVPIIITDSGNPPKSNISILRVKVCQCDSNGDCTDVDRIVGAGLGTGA

[7] = target: T2, Recombinant Human N-Cadherin …; test: ELISA; plates coated with 2.5 μg/mL recombinant N-cadherin; biotinylated peptides at different concentrations in PBS-2%-BSA, 1 hour at RT; streptavidin-HRP; settings: both partners purified

Molecule: AWEFYFP [isolated from both the in vitro and intracranial in vivo biopanning]
targeting of GSCs in vitro (GSCs): specificity for targeting GSCs in vitro
enrichment in in vitro biopanning (GSCs): one of the most enriched
enrichment in in vivo biopanning, intracranial [1]: one of the most enriched
binding of single peptide E to N-cadherin (N-cadherin [2]): positive binding to N-cadherin

kon ([3]; CM5 chip, 25°C, 20 mM HEPES pH 7.4, 1 mM TCEP, 2 mM CaCl2, 150 mM NaCl, 5% DMSO, EV 2 to 167 µM, 1:1 model, first run, read-out: on-rate (ka)): 2620 M⁻¹ s⁻¹
Molecule: AWEFYFPGGGGSGGGGSGGGGSSSQPFWS [EV]

Molecule: FAYPEWFGGGGSGGGGSGGGGSPSWSFSQ [NT, reference compound]
N-cadherin antibody signal in peptide pull-down immunoblot (N-cadherin [4]): absent
SPR response / KD of NT peptide ([3]; identical condition, NT peptide in SPR is GGGSGGG, could not be fitted for reliable extraction of the KD): did not exhibit significant resonance units

Molecule: SSQPFWS [V, isolated from the subcutaneous flank biopanning]
targeting of GSCs in vitro (GSCs): specificity for targeting GSCs in vitro
enrichment in in vivo biopanning on subcutaneous tumors [5]: one of the most enriched

Kd [6]: 9.4 µM and 8.45 µM and 7.5 µM
koff [6]: 0.0196 s⁻¹
B1: EV peptide as used in surface plasmon resonance (peptide)
peptide: AWEFYFPGGGGSGGGGSGGGGSSSQPFWS
notes: dual peptide EV; the SPR methods say only 'EV peptide'; source: synthetic peptide

binding result [7]: binds
B2: biotinylated dual peptide EV (EV-b) (peptide)
peptide: AWEFYFPGGGGSGGGGSGGGGSSSQPFWS
modifications: also: biotin conjugated, position not given here
notes: 29 amino acids; also called EV-biotinylated peptide; source: synthetic peptide (LifeTein)
